Measured values from US20110071150A1 (priority 2009, published 2011).

The compounds below were run on Jurkat IL-2 Production (assay: Jurkat IL-2 Production Assay). Conditions: Homo sapiens, Jurkat cell (ATCC), 18-20 h incubation, PHA 5 μg/mL with 1% FBS, or PMA/Ionomycin with 30% FBS (table does not say which).
Format: cell-based
Outline: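 Jurkat cells were exposed to compound (0.25% DMSO final) for 10 min, then stimulated for 18–20 h at 37 °C. The 1% FBS condition used 5 μg/mL PHA; the high-serum condition (30% FBS) used 50 ng/mL PMA plus 500 ng/mL ionomycin. IC50 was derived from IL-2 production.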

Going from `CNS(=O)(=O)c1ccc(-c2ccc3[nH]c(-c4c(F)cccc4Cl)cc3c2)c(C)c1` [Example 168, 4-(2-(2-chloro-6-fluorophenyl)-1H-indol-5-yl)-N,3-dimethylbenzenesulfonamide] to `CNC(=O)c1cc(C)c(-c2ccc3[nH]c(-c4c(F)cccc4Cl)cc3c2)cn1` [Example 118, 5-[2-(2-Chloro-6-fluoro-phenyl)-1H-indol-5-yl]-4-methyl-pyridine-2-carboxylic acid methylamide], the IC50 rises from 44 nM to 180 nM (4.1-fold).

Going from `COc1cc(C)c(-c2ccc3[nH]c(-c4cccc(C#N)c4F)cc3c2)cn1` [Example 152, 2-fluoro-3-(5-(6-methoxy-4-methylpyridin-3-yl)-1H-indol-2-yl)benzonitrile] to `COCCOc1cc(C)c(-c2ccc3[nH]c(-c4c(F)cccc4Cl)cc3c2)cn1` [Example 163, 2-(2-chloro-6-fluorophenyl)-5-(6-(2-methoxyethoxy)-4-methylpyridin-3-yl)-1H-indole], the IC50 falls from 731 nM to 108 nM (6.8-fold). The second is the more potent here.

First: CCc1sc(-c2cccnc2)nc1-c1ccc2[nH]c(-c3c(F)cccc3F)cc2c1 [Example 207, 2-(2,6-Difluoro-phenyl)-5-(5-ethyl-2-pyridin-3-yl-thiazol-4-yl)-1H-indole]
Second: Cc1sc(-c2cccnc2)nc1-c1ccc2[nH]c(-c3c(F)cccc3F)cc2c1 [Example 13, 2-(2,6-Difluoro-phenyl)-5-(5-methyl-2-pyridin-3-yl-thiazol-4-yl)-1H-indole]
The IC50 of the first is 2.5-fold lower: 26 nM for the first, 66 nM for the second. The first is the more potent here.

Going from `Cc1cc(N2CCOCC2)ncc1-c1ccc2[nH]c(-c3c(F)cccc3Cl)cc2c1` [Example 165, 4-(5-(2-(2-chloro-6-fluorophenyl)-1H-indol-5-yl)-4-methylpyridin-2-yl)morpholine] to `Cc1sc(-c2cnccn2)nc1-c1ccc2[nH]c(-c3c(F)cccc3Cl)cc2c1` [Example 176, 2-(2-Chloro-6-fluoro-phenyl)-5-(5-methyl-2-pyrazin-2-yl-thiazol-4-yl)-1H-indole], the IC50 falls from 316 nM to 14 nM (23-fold). The second is the more potent here.

`CCn1nc(C(F)(F)F)cc1-c1ccc2[nH]c(C3CCOCC3)cc2c1` [Example 198, 5-(1-ethyl-3-(trifluoromethyl)-1H-pyrazol-5-yl)-2-(tetrahydro-2H-pyran-4-yl)-1H-indole] and `CCn1nc(C(F)(F)F)cc1-c1ccc2[nH]c(-c3cnccc3C)cc2c1` [Example 191, 5-(1-ethyl-3-(trifluoromethyl)-1H-pyrazol-5-yl)-2-(4-methylpyridin-3-yl)-1H-indole] are within 1.5-fold of each other in IC50: 95 nM for the first, 67 nM for the second.

First: CC(c1sc(-c2cccnc2)nc1-c1ccc2[nH]c(-c3c(F)cccc3Cl)cc2c1)C(F)(F)F (stereo not drawn) [Example 182, 2-(2-chloro-6-fluoro-phenyl)-5-[2-pyridin-3-yl-5-(2,2,2-trifluoro-1-methyl-ethyl)-thiazol-4-yl]-1H-indole]
Second: COc1ccc(-c2ccc3[nH]c(-c4c(F)cccc4F)cc3c2)c(C)n1 [Example 101, 2-(2,6-Difluoro-phenyl)-5-(6-methoxy-2-methyl-pyridin-3-yl)-1H-indole]
The IC50 of the first is 4.2-fold lower: 142 nM for the first, 593 nM for the second.

First: Cn1nc(-c2ccccn2)cc1-c1ccc2[nH]c(-c3cc(F)ccc3Cl)cc2c1 [Example 82, 2-(2-Chloro-5-fluoro-phenyl)-5-(2-methyl-5-pyridin-2-yl-2H-pyrazol-3-yl)-1H-indole]
Second: Cn1nc(C(F)(F)F)cc1-c1ccc2[nH]c(-c3cc(Cl)ccc3F)cc2c1 [Example 33, 2-(5-Chloro-2-fluoro-phenyl)-5-(2-methyl-5-trifluoromethyl-2H-pyrazol-3-yl)-1H-indole]
The IC50 of the first is 2-fold lower: 367 nM for the first, 741 nM for the second. The first is the more potent here.

With `COc1ccc(-c2ccc3[nH]c(-c4c(F)cccc4F)cc3c2)c(C)c1` [Example 28, 2-(2,6-Difluoro-phenyl)-5-(4-methoxy-2-methyl-phenyl)-1H-indole] the IC50 was 123 nM.
